#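 The compound was tested at five concentrations on cells cultured in 96-well plates, with a 48-hour exposure period. GI50 marks 50% less growth. TGI is the concentration that stops growth completely.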
# Key:
# Experiment in all cases: growth of human tumour cells (NCI), 48 h
# [1] = tested on: SK-MEL-2 melanoma
# [2] = tested on: SN12C renal
# [3] = tested on: M14 melanoma
# [4] = tested on: RXF 393 renal
# [5] = tested on: BT-549 breast
# [6] = tested on: NCI-H460 lung
# [7] = tested on: MALME-3M melanoma
# [8] = tested on: SK-OV-3 ovarian
# [9] = tested on: T-47D breast
# [10] = tested on: CAKI-1 renal
# [11] = tested on: NCI/ADR-RES ovarian
# [12] = tested on: OVCAR-4 ovarian
# [13] = tested on: MDA-MB-435
# [14] = tested on: ACHN renal
# [15] = tested on: MCF7 breast
# [16] = tested on: OVCAR-5 ovarian
# [17] = tested on: DU-145 prostate
# [18] = tested on: A498 renal
# [19] = tested on: LOX IMVI melanoma
# [20] = tested on: SF-295 CNS
# [21] = tested on: TK-10 renal
# [22] = tested on: SNB-75 CNS
# [23] = tested on: SNB-19 CNS
# [24] = tested on: PC-3 prostate
# [25] = tested on: NCI-H522 lung
# [26] = tested on: HS 578T breast
# [27] = tested on: NCI-H226 lung
# [28] = tested on: HT29 colon
# [29] = tested on: MDA-MB-231 breast
# [30] = tested on: NCI-H23 lung
# [31] = tested on: HOP-62 NSCLC
# [32] = tested on: SF-268 CNS
# [33] = tested on: 786-0 renal
# [34] = tested on: IGROV1 ovarian
# [35] = tested on: HCT-15 colon
# [36] = tested on: CCRF-CEM leukemia
# [37] = tested on: COLO 205 colon
# [38] = tested on: OVCAR-8 ovarian
# [39] = tested on: U251 CNS
# [40] = tested on: SK-MEL-5 melanoma
# [41] = tested on: SW-620 colon
# [42] = tested on: SF-539 CNS
# [43] = tested on: HCC-2998 colon
# [44] = tested on: UACC-257 melanoma
# [45] = tested on: EKVX NSCLC
# [46] = tested on: K-562 leukemia
# [47] = tested on: UO-31 renal
# [48] = tested on: RPMI-8226 leukemia
# [49] = tested on: MOLT-4 leukemia
# [50] = tested on: SK-MEL-28 melanoma
# [51] = tested on: HL-60(TB) leukemia
# [52] = tested on: HOP-92 NSCLC
# [53] = tested on: SR leukemia
# [54] = tested on: UACC-62 melanoma
# [55] = tested on: KM12 colon
# [56] = tested on: A549 NSCLC
# [57] = tested on: HCT-116 colon
compound,measurement,setting,value
CC(Nc1c(C#N)cnc2ccc(-c3cnc(N)nc3)cc12)c1ccccc1 (stereo not drawn),GI50,[1],1120 nM
same,TGI,[1],2950 nM
same,GI50,[2],765 nM
same,TGI,[2],14800 nM
same,GI50,[3],1560 nM
same,TGI,[3],11200 nM
same,GI50,[4],559 nM
same,TGI,[4],3900 nM
same,GI50,[5],410 nM
same,TGI,[5],4510 nM
same,GI50,[6],987 nM
same,TGI,[6],11600 nM
same,GI50,[7],527 nM
same,TGI,[7],3790 nM
same,GI50,[8],1210 nM
same,TGI,[8],5720 nM
same,GI50,[9],446 nM
same,GI50,[10],441 nM
same,TGI,[10],4280 nM
same,GI50,[11],2340 nM
same,TGI,[11],28300 nM
same,GI50,[12],527 nM
same,TGI,[12],4760 nM
same,GI50,[13],1670 nM
same,TGI,[13],9570 nM
same,GI50,[14],785 nM
same,TGI,[14],13200 nM
same,GI50,[15],640 nM
same,TGI,[15],> 35300 nM
same,GI50,[16],787 nM
same,TGI,[16],13600 nM
same,GI50,[17],796 nM
same,TGI,[17],13300 nM
same,GI50,[18],199 nM
same,TGI,[18],1040 nM
same,GI50,[19],915 nM
same,TGI,[19],5850 nM
same,GI50,[20],1080 nM
same,TGI,[20],> 23100 nM
same,GI50,[21],206 nM
same,TGI,[21],1860 nM
same,GI50,[22],258 nM
same,TGI,[22],2450 nM
same,GI50,[23],1590 nM
same,TGI,[23],20000 nM
same,GI50,[24],720 nM
same,TGI,[24],10600 nM
same,GI50,[25],2200 nM
same,TGI,[25],10500 nM
same,GI50,[26],422 nM
same,TGI,[26],2840 nM
same,GI50,[27],1530 nM
same,TGI,[27],16600 nM
same,GI50,[28],1630 nM
same,TGI,[28],13900 nM
same,GI50,[29],850 nM
same,TGI,[29],16800 nM
same,GI50,[30],1700 nM
same,TGI,[30],11000 nM
same,GI50,[31],1090 nM
same,TGI,[31],9820 nM
same,GI50,[32],1240 nM
same,TGI,[32],8790 nM
same,GI50,[33],1360 nM
same,TGI,[33],10200 nM
same,GI50,[34],374 nM
same,TGI,[34],2400 nM
same,GI50,[35],1240 nM
same,TGI,[35],> 38600 nM
same,GI50,[36],1000 nM
same,TGI,[36],40200 nM
same,GI50,[37],1780 nM
same,TGI,[37],6820 nM
same,GI50,[38],1720 nM
same,TGI,[38],11600 nM
same,GI50,[39],1550 nM
same,TGI,[39],11200 nM
same,GI50,[40],1520 nM
same,TGI,[40],3090 nM
same,GI50,[41],2620 nM
same,TGI,[41],12200 nM
same,GI50,[42],1310 nM
same,TGI,[42],5980 nM
same,GI50,[43],2000 nM
same,TGI,[43],13600 nM
same,GI50,[44],2110 nM
same,TGI,[44],10500 nM
same,GI50,[45],857 nM
same,TGI,[45],> 23800 nM
same,GI50,[46],2160 nM
same,TGI,[46],> 100000 nM
same,GI50,[47],252 nM
same,TGI,[47],5840 nM
same,GI50,[48],382 nM
same,TGI,[48],2960 nM
same,GI50,[49],870 nM
same,TGI,[49],6140 nM
same,GI50,[50],1590 nM
same,TGI,[50],8970 nM
same,GI50,[51],2460 nM
same,TGI,[51],> 39500 nM
same,GI50,[52],138 nM
same,TGI,[52],827 nM
same,GI50,[53],741 nM
same,TGI,[53],> 43400 nM
same,GI50,[54],1080 nM
same,TGI,[54],4530 nM
same,GI50,[55],1750 nM
same,TGI,[55],8640 nM
same,GI50,[56],1030 nM
same,TGI,[56],11700 nM
same,GI50,[57],1710 nM
same,TGI,[57],5930 nM
